# Results taken from US20260215427A1, “NON-BIPYRIDYL SALT HERBICIDE, PREPARATION METHOD THEREFOR, AND USE THEREOF” (priority 2022, published 2026).
# Key:
# [1] = test system: mice; assay: Damage of major organs (histopathology) 48 hours after intraperitoneal injection in mice; format: in vivo; details: 48 hours after intraperitoneal administration
# Description: The data is expressed as mean±standard error, with 6 mice per group (n=6), and P<0.05 indicates statistically significant differences. Scale bar: 50 μm.
# [2] = test system: mice; assay: PQ-induced lethality in mice, single intraperitoneal injection, dose and timing finding; format: in vivo
# Experimental: Firstly, the optimal dose and timing for PQ-induced lethality in mice were determined through single intraperitoneal injection at doses of 20, 30, 40, 50, and 60 (mg/kg). […] Therefore, 50 mg/kg was chosen as the optimal dose. The mouse tissue samples were collected 48 hours after PQ administration.
# [3] = test system: mice; assay: Organ indices and biochemical indicators 48 hours after intraperitoneal injection in mice; format: in vivo; details: for levels of SOD and CAT in lung tissue / serum levels of TNF-α, IL-B, IL-6, AST, ALT, SCr, BUN, and uric acid: 50 mg/kg paraquat or same dose, 48 hour; for lung, liver, and kidney indices compared with the control group / cardiac index: 50 mg/kg paraquat or same molar dose, 48 hours; for cardiac index: among the three groups
# Description: P<0.05 is considered statistically significant, with 10 mice per group (n=10).
# However, no significant differences in these biochemical indicators were detected after intraperitoneal injection of the compound of formula 2 diene diamine at the same molar concentration.
# [4] = test system: Hep G2 cells; assay: Intracellular ROS levels, DCF fluorescence, flow cytometry; format: cell-based; details: 100 μM, 18 hours
# Experimental: (§1) The above three types of cells were exposed to 100 μM PQ (100) and 100 μM of the compound of formula 2 and incubated for 18 hours, and the intracellular reactive oxygen species (ROS) levels were quantified using flow cytometry. Intracellular ROS levels were measured using DCF fluorescence (n=6).
# [5] = test system: A549 cells; assay: as above; format: cell-based; details: 100 μM, 18 hours
# Experimental: as §1
# [6] = test system: COS-7 cells; assay: as above; format: cell-based; details: 100 μM, 18 hours
# Experimental: as §1
# [7] = test system: mice; assay: Transmission electron microscopy of main organs 48 hours after intraperitoneal injection in mice; format: in vivo; details: 0.19 mmol/kg intraperitoneal
# Experimental: 48 hours after intraperitoneal injection of 0.19 mmol/kg of paraquat or the compound of formula 2, transmission electron microscopy samples of the lung, liver, kidney, and heart were collected. The black arrow indicated mitochondrial damage, and the electron microscopy scale of the heart group was 200 nm, and the electron microscope scale of other groups was 100 nm.
# [8] = test system: mice; assay: Acute toxicity test and LD50 determination in mice, intraperitoneal injection; format: in vivo
# Experimental: (§2) In order to evaluate the safety of compound 2 of the present invention in vivo, acute toxicity tests were conducted on mice. Firstly, the LD50 of diene diamine in mice was measured. […] The toxicity of diene diamine in mice is low and the safety is high.
# [9] = test system: Bermuda grass; assay: Herbicidal performance, leaf spray under air and sunlight; format: in vivo; details: for state of leaves 24 hours after spraying: various concentrations (1, 2, 4, 8 times PQ equivalent), air and sunlight
# Description: (§3) As is well-known, Bermuda grass, Arabidopsis thaliana, and Acorus calamus are naturalized green weeds in most parts of the world and are also invasive grasses. Photosynthesis occurs throughout their entire leaves and bundles. […] Therefore, Bermuda grass, Acorus calamus, and Arabidopsis thaliana were selected as plant models to evaluate the herbicidal performance of the compounds in the present invention.
# (§4) Under air and sunlight, the compound of formula 2 of the present invention was sprayed on the leaf surface at concentrations of 1, 2, 4, and 8 times the PQ equivalent, respectively. Paraquat herbicide was used as the positive control, and physiological saline was used as the blank control group. The diameter of the observation range was 8 cm.
# [10] = test system: Acorus calamus; assay: as above; format: in vivo; details: for state of leaves 24 hours after spraying: various concentrations (1, 2, 4, 8 times PQ equivalent), air and sunlight
# Description: as §3, §4
# [11] = test system: Arabidopsis thaliana; assay: as above; format: in vivo; details: for state of leaves 24 hours after spraying: various concentrations (1, 2, 4, 8 times PQ equivalent), air and sunlight
# Description: as §3, §4
# [12] = test system: humans; details: background data; cited from earlier work
# [13] = test system: Hep G2 cells; assay: Direct cytotoxicity, cell viability and IC50; format: cell-based; details: for cell viability: Hep G2, co-culture 24 hours, concentration gradient
# Description: (§5) PQ is rapidly absorbed and distributed to the lungs, kidneys, liver, and muscles after entering the human body. Death caused by ingestion of PQ is usually due to multiple organ failure, such as pulmonary edema, kidney and liver failure. Therefore, lung cells (A549 cells), kidney cells (COS-7), and liver cells (Hep G2) were selected to evaluate the direct cytotoxicity of diene diamine.
# [14] = test system: A549 cells; assay: Direct cytotoxicity, cell viability and IC50; format: cell-based; details: for cell viability: A549, co-culture 24 hours, concentration gradient
# Description: as §5
# [15] = test system: COS-7 cells; assay: Direct cytotoxicity, cell viability and IC50; format: cell-based; details: for cell viability: COS-7, co-culture 24 hours, concentration gradient
# Description: as §5
# [16] = test system: mice; assay: Survival rate and body weight of mice after intraperitoneal injection; format: in vivo; details: 0.19 mmol/kg intraperitoneal
# [17] = test system: Arabidopsis thaliana; assay: Herbicidal mechanism: LC-MS, chlorophyll and photosystem parameters, electron microscopy after spraying; format: in vivo
# [18] = test system: Hep G2 cells; assay: Apoptosis, Annexin V-FITC and propidium iodide staining; format: cell-based; details: 24 hours of incubation
# Description: (§6) The data was expressed as + SEM. *p<0.05, p<0.05, **p<0.01, ***p<0.001, ****p<0.0001.
# [19] = test system: A549 cells; assay: as above; format: cell-based; details: 24 hours of incubation
# Description: as §6
# [20] = test system: COS-7 cells; assay: as above; format: cell-based; details: 24 hours of incubation
# Description: as §6
# [21] = Acute toxicity test and LD50 determination in mice, intraperitoneal injection; format: in vivo; details: mouse, in vivo, ip; mice, intraperitoneal injection, seventh day
# Experimental: as §2
# [22] = Conversion of the compound of formula 2 to PQ under lighting and air conditions in physiological saline; format: physicochemical; details: air; for Yield (conversion to PQ): darkness, 72 h; for Yield (conversion rate to PQ): natural light, 24 h
# [23] = Direct cytotoxicity, cell viability and IC50; format: cell-based; details: 24 hours
# Description: as §5
# [24] = test system: Bermuda grass; assay: Herbicidal performance of the compound of formula 3, leaf spray, diquat as positive control; format: in vivo; details: air and sunlight
# Description: Under air and sunlight, the compound of formula 3 of the present invention was sprayed on the surface of leaves, with herbicide diquat as a positive control. The diameter of the observation range was 10 cm.
# [25] = 300 mg/kg intraperitoneal, 8 mice
# [26] = 600 mg/kg intraperitoneal, 8 mice
# [27] = 900 mg/kg intraperitoneal, 8 mice
# [28] = 1050 mg/kg intraperitoneal, 8 mice
# [29] = 1200 mg/kg intraperitoneal, 8 mice
# [30] = 25 °C, listed as diene diamine compound
compound,measurement,setting,value
"C[n+]1ccc(-c2cc[n+](C)cc2)cc1.[Cl-].[Cl-] [PQ, 1,1-dimethyl-4,4′-bipyridinium dichloride, reference compound]","pathological damage of major tissues (lung, liver, kidney, heart)",[1],multiple organic damages accompanied by significant inflammation
same,tissue damage scores of the main organs,[1],significantly higher than those in the control group and the diene diamine group
same,lung injury score,[2]; 24 hours after PQ administration,significant increase
same,time point of the highest lung injury score,[2]; compared to other time points,48 h
same,survival time,"[2]; single intraperitoneal injection, 20 and 30 mg/kg, all mice",over 168 hours
same,body weight on the first day,"[2]; single intraperitoneal injection, 50 or 60 mg/kg",significant weight loss
same,levels of SOD and CAT in lung tissue,[3],significantly decreased
same,"serum levels of TNF-α, IL-B, IL-6, AST, ALT, SCr, BUN, and uric acid",[3],significantly increased
same,"lung, liver, and kidney indices compared with the control group",[3],significantly increased
same,cardiac index,[3],no statistical difference
same,intracellular ROS production,[4],significant increase in ROS production
same,intracellular ROS production,[5],significant increase in ROS production
same,intracellular ROS production,[6],significant increase in ROS production
same,"mitochondrial structure in lung, liver, kidney, and heart tissues (transmission electron microscopy)",[7],"mitochondrial damage such as swelling, vacuolization, blurring, or fragmentation"
same,"Mortality, n (%) Day 1",[8]; [25],0 (0) n (%)
same,"Mortality, n (%) Day 7",[8]; [25],0 (0) n (%)
same,"Mortality, n (%) Day 1",[8]; [26],0 (0) n (%)
same,"Mortality, n (%) Day 7",[8]; [26],0 (0) n (%)
same,"Mortality, n (%) Day 1",[8]; [27],3 (37.5) n (%)
same,"Mortality, n (%) Day 7",[8]; [27],3 (37.5) n (%)
same,"Mortality, n (%) Day 1",[8]; [28],3 (37.5) n (%)
same,"Mortality, n (%) Day 7",[8]; [28],3 (37.5) n (%)
same,"Mortality, n (%) Day 1",[8]; [29],8 (100) n (%)
same,"Mortality, n (%) Day 7",[8]; [29],8 (100) n (%)
same,state of leaves 24 hours after spraying,[9],began to wither
same,state of leaves 24 hours after spraying,[10],began to wither
same,state of leaves 24 hours after spraying,[11],began to wither
same,mortality rate of toxic ingestion incidents,[12],50-90%
same,cell viability,[13],direct cytotoxic effects
same,IC50,"[13]; hep G2 cells, 24 hours",131 µM
same,cell viability,[14],direct cytotoxic effects
same,IC50,"[14]; A549 cells, 24 hours",322 µM
same,cell viability,[15],direct cytotoxic effects
same,IC50,"[15]; Cos-7 cells, 24 hours",114 µM
same,weight of the mice,[16],continued to decrease
same,mice died,[16]; within 112 hours after administration,100%
"CN1CC=C(C2=CCN(C)CC2)CC1 [compound of formula 2, 1,1′-dimethyl-1,1′, 2,2′, 3,3′, 6,6′-octahydro-4,4′-bipyridine]","pathological damage of major tissues (lung, liver, kidney, heart)",[1],no significant pathological damage
same,electron microscopy findings after 8 hours,[17],"chloroplast stroma lysis, swelling of thylakoids and mitochondrial cristae"
same,electron microscopy findings after 24 hours,[17],"rupture of mesophyll cell nuclei, mitochondria, and chloroplast envelopes"
same,"chlorophyll content, maximum fluorescence quantum yield of PSII, Fv/Fm value, and SPAD",[17]; natural sunlight and air,significant decreases
same,levels of SOD and CAT in lung tissue,[3],no significant changes
same,"serum levels of TNF-α, IL-B, IL-6, AST, ALT, SCr, BUN, and uric acid",[3],no significant changes
same,"lung, liver, and kidney indices compared with the control group",[3],no statistical difference
same,cardiac index,[3],no statistical difference
same,apoptosis rate compared to the PQ group,[18],significantly reduced
same,apoptosis rate compared to the PQ group,[19],significantly reduced
same,apoptosis rate compared to the PQ group,[20],significantly reduced
same,intracellular ROS production,[4],no significant changes
same,intracellular ROS production,[5],no significant changes
same,intracellular ROS production,[6],no significant changes
same,"mitochondrial structure in lung, liver, kidney, and heart tissues (transmission electron microscopy)",[7],No significant mitochondrial structural damage
same,LD50 at 7 day,[21],1000 mg/kg
same,deaths,[8]; [29],Eight mice died
same,survival,"[8]; 300 and 600 mg/kg intraperitoneal, third day after administration",all mice survived
same,deaths,"[8]; 900 and 1050 mg/kg intraperitoneal, respectively, 8 mice per dose",Three mice died
same,weed control effect compared with PQ,[9]; same or twice the dose of PQ,slightly delayed weed control effect
same,state of leaves 24 hours after spraying,[9],began to wither
same,weed control effect compared with PQ,[10]; same or twice the dose of PQ,slightly delayed weed control effect
same,state of leaves 24 hours after spraying,[10],began to wither
same,weed control effect compared with PQ,[11]; same or twice the dose of PQ,slightly delayed weed control effect
same,state of leaves 24 hours after spraying,[11],began to wither
same,Yield (conversion to PQ),[22]; 25 °C,0%
same,Yield (conversion to PQ),[22]; [30],hardly converted to PQ
same,Yield (conversion rate to PQ),[22]; 25 °C,30%
same,Yield (conversion rate to PQ),[22]; [30],about 30%
same,Yield (conversion rate to PQ),[22]; 40 °C,63%
same,Yield (conversion rate to PQ),"[22]; 40 °C, listed as diene diamine compound",about 63%
same,cell viability,[13],no significant changes in cell viability
same,IC50 value relative to the PQ treatment group,[13]; Hep G2 cells,increased by dozens of times
same,cell viability,[14],no significant changes in cell viability
same,IC50 value relative to the PQ treatment group,[14]; A549 cells,increased by dozens of times
same,cell viability,[15],no significant changes in cell viability
same,IC50 value relative to the PQ treatment group,[15]; COS-7 cells,increased by dozens of times
same,IC50,"[23]; African green monkey, Cos-7 cells",1570 µM
same,IC50,"[23]; human, A549 cells",5770 µM
same,IC50,"[23]; human, hep G2 cells",1360 µM
same,weight of the mice,[16],continued to steadily increase
same,survival,[16]; after 168 hours,all mice in the group of the compound of formula 2 survived
"C1=CCN2CCN3CC=CCC3C2C1 (stereo not drawn) [compound of formula 3, 1,4,6,7,9,12,12a, 12b octahydrodipyridin [1,2-a: 2′, 1′-c]pyrazine]",weed control effect relative to diquat,[24],comparable to that of diquat
same,state of leaves 3 days after spraying,[24]; concentration not specified,began to wither
same,state of leaves after 5 days,[24]; concentration not specified,completely withered
